The results in this text go back to patent US6664088B2, “Production of vanillin” (Plant Bioscience Limited, priority 1996, dated 2003).

Test [1] has as its target T1, trans-feruloyl SCoA hydratase/aldol cleavage enzyme (Pseudomonas fluorescens, UniProt O69762).
T1 construct: Purification from cells of Ps. fluorescens biovar V, strain AN103, was; endogenous in cells; host or cells: Ps. fluorescens biovar; V strain AN103 grown on trans-ferulate (crude extract, then Mono Q, Mono P, PhenylSuperose); also crude extract of E. coli JM109(DE3) with the gene in pSP72
As to the kind of experiment: trans-feruloyl SCoA hydratase/aldol cleavage enzyme activity, reaction products by HPLC. Particulars: 30° C., 0.4 mM substrate, 2.8 μg enzyme partially purified by Mono-Q and Mono-P. The class given is biochemical. As for the experimental part:
At each stage of purification, active fractions were detected by a micro-adaptation of the assay with HMPHP SCoA described above (Example 2); reactions were performed in 100 μl of reaction mixture for ca. 4 min at room temperature in microtitre wells and absorbance was then measured in an MR 5000 microtitre plate reader (Dynatech, Guernsey, Channel Islands), equipped with a 340 nm filter. The activity of the pooled fractions was measured using HPLC to determine the reaction products of both HMPHP SCoA, (0.4 mM) and trans-feruloyl SCoA (0.28 mM) as substrates. […] The proportionality of the reactions with time and with quantity of enzyme was established in preliminary determinations.
E. coli cells were grown at 37° C. for 3 h in 50 ml of L medium, containing ampicillin (50 μg/ml) with and without induction by IPTG. Extracts were prepared as described above in Example 2 for Ps. fluorescens AN103, but without centrifugation. The crude extract was used for assay. Enzyme activity with both HMPHP SCoA and trans-feruloyl ScoA was determined as described above in Example 4 using HPLC to determine the reaction products. […] There was no activity with either trans-feruloyl SCoA or HMPHP SCoA in extracts of an unmanipulated E. coli strain, whether induced or not. In the manipulated strain E. coli 1039 that expresses the Pseudomonas gene the specific activity was slightly lower in the exLract made following induction than in that made from uninduced bacteria. […] It was not possible to detect expression of the 31 kD protein visually on Coomassie-stained, one-dimensional SDS gels because of its co-migration with the strongly expressed β-lactamase encoded by the vector ampicillin resistance marker.

Test [2] deals with enzyme activities I, II and III from Ps. fluorescens biovar V, strain AN103. Nature of the test: Use of cinnamates as substrates by enzyme activities I, II and III. The class given is biochemical, Pseudomonas fluorescens. Particulars: AN103 enzymes.
Test [3] relates to Ps. fluorescens biovar. V, strain AN103. As to the kind of experiment: Relative growth of strain AN103 on a range of carbon substrates (absorbance at 600 nm). The class given is cell-based, Pseudomonas fluorescens. Particulars: for activity at 10000 µM: read-out: Relative Growth (%). Here is the method: KH2PO4, 5 g; […] FeSO4, 0.5 mg; CaCl2, 0.5 mg; MnCl2.5H2O, 5 mg; (NH4)6Mo2O7.4H2O, 1.1 mg; MgSO4, 5 mg; EDTA, 50 mg; […] The pH was 7.0. Carbon sources were included as indicated. […] Growth was monitored by measuring absorbance at 550 or 600 nm. [table]

Test [4] relates to cell-free extract of strain AN103. Nature of the test: Incubation of CoASH thioesters with cell-free extract. The class given is biochemical, Pseudomonas fluorescens. As for the experimental part: (§1) Cell-free extracts were routinely incubated at 30° C. and pH 7.5 in a reaction mixture (1 ml) containing 90 mM Tris HCl buffer and 2.5 mM MgCl2, together with (as appropriate) 0.5 mM trans-ferulic acid, 0.2 mM CoASH (Li salt) and 2.5 mM ATP. This complete reaction mixture constituted an assay for trans-ferulate: CoASH ligase, where the initial increase in absorbance at 345 nm was monitored against a blank reaction mixture from which CoASH was omitted. Incubations with HMPHP SCoA (generally 0.4 mM) were performed similarly, but with the omission of trans-ferulic acid, CoASH and ATP.
Metabolites of trans-ferulic acid, including the CoASH thioesters, were analysed and quantitated by HPLC using a Lichrosorb RP-18 column (20 cm×4.6 mm; Capital HPLC, Broxburn, West Lothian, UK) with a multiphasic gradient; solvent “A” was 20 mM NaOAc, adjusted to pH 6.0 and solvent“B” was MeOH; the flow rate was 1.2 ml/min; the proportion of solvent “B” rose linearly from 0% at 0 min to 10% at 15 min and thence to 50% at 40 min and 70% at 45 min, finally decreasing to 0% at 50 min. Detection was with a Spectra Focus detector (Thermo Separation Products, Stone, Staffs. UK), which permitted u/v spectral analysis of each eluting component.

Test [5] has as its target T2, Vanillin: NAD+ oxidoreductase (Pseudomonas fluorescens, UniProt O69763).
T2 construct: endogenous in cells; host or cells: Ps. fluorescens AN103 / van 1 / van 10 cell-free extracts; also E. coli DH5 carrying pUC18 with the full-length ORF
Nature of the test: Vanillin:NAD+ oxidoreductase assay, decrease in absorbance at 340 nm. The class given is biochemical. Particulars: gene expressed in E. coli strain DH5 from pUC18. As for the experimental part: Vanillin: NAD^+ oxidoreductase was assayed at 30° C. and pH 7.0 by monitoring the initial decrease in absorbance at 340 nm against a blank cuvette from which NAD^+ was omitted. Because of the similarity in extinction coefficient at 340 nm for vanillin and for NADH, the sensitivity of the assay was increased by catalysing the regeneration of NADH to NAD^+ by providing lactate dehydrogenase and pyruvate. Reaction mixtures contained, in 1 ml volume, 75 mM KPi buffer, pH 7.0, 0.125 mM vanillin, 1.2 mM Na pyruvate, lactate dehydrogenase (rabbit muscle), 1.1 U and NAD^+, 0.5 mM.
In order to confirm the function of this gene, expression was determined in E. coli strain DH5, which contained the vector pUC18 into which the full-length open reading frame had been inserted such that expression was from the lac promoter on the vector. Vanillin: NAD^+ oxidoreductase activity was confirmed and was absent from a control strain bearing the unmodified pUC 18 vector. Using the enzyme assay described in Example 2, activity with vanillin as substrate was determined as 3.0 nkat/mg of protein; activity with salicylaldehyde was 2.8 nkat/mg.

Test [6] concerns trans-ferulate: CoASH ligase. Nature of the test: trans-ferulate:CoASH ligase assay, initial increase in absorbance at 345 nm. The class given is biochemical, Pseudomonas fluorescens. Particulars: crude extracts of Ps. fluorescens AN103; initial rate at absorbance maximum of the SCoA thioester. As for the experimental part: as §1
Setting [7] is: substrate 10 mM on MM Medium, 48 h at 25° C., absorbance at 600 nm.
[8] abbreviates: Pseudomonas fluorescens, substrate 10 mM on MM Medium, 48 h at 25° C., absorbance at 600 nm.

The structures appear in SMILES notation. Read-outs that look alike come from different tables or passages of the source.

T1 sequence (O69762 2-276): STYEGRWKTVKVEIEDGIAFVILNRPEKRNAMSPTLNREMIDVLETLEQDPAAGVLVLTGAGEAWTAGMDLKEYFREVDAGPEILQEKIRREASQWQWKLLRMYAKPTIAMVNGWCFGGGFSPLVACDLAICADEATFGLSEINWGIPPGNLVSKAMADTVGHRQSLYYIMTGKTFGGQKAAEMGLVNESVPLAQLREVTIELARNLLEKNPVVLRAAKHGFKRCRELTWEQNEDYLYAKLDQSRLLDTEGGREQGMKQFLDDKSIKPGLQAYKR
T2 sequence (O69763 whole entry): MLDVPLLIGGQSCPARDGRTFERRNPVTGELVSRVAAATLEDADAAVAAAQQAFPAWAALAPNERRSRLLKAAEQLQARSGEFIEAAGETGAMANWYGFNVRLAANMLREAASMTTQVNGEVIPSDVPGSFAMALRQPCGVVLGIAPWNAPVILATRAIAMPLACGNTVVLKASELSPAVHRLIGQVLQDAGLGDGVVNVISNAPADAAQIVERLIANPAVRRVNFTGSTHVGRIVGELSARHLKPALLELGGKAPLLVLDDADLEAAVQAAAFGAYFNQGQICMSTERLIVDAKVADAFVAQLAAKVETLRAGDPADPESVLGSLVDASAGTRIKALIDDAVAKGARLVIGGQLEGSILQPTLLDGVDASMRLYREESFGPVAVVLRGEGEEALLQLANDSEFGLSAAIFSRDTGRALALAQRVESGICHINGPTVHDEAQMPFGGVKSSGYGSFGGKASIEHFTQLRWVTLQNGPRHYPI

Take `CC(C)(COP(=O)(O)OP(=O)(O)OC[C@H]1O[C@@H](n2cnc3c(N)ncnc32)[C@H](O)[C@@H]1OP(=O)(O)O)[C@@H](O)C(=O)NCCC(=O)NCCSC(=O)/C=C/c1ccc(O)c(O)c1` (relative stereo) [Caffeoyl SCoA, trans-caffeoyl SCoA]: the “Activity, utilisation of trans-p-hydroxycinnamoyl SCoA thioester” value in test [1] is recorded as 0.36 nkat/mg of protein.
Same read-out and setting: the same measure for `COc1cc(C=CC(=O)SCCNC(=O)CCNC(=O)[C@H](O)C(C)(C)COP(=O)(O)OP(=O)(O)OC[C@H]2O[C@@H](n3cnc4c(N)ncnc43)[C@H](O)[C@@H]2OP(=O)(O)O)ccc1O` (relative stereo) [Feruloyl SCoA, trans-feruloyl SCoA]: 0.60 nkat/mg of protein; for `CC(C)(COP(=O)(O)OP(=O)(O)OC[C@H]1O[C@@H](n2cnc3c(N)ncnc32)[C@H](O)[C@@H]1OP(=O)(O)O)[C@@H](O)C(=O)NCCC(=O)NCCSC(=O)/C=C/c1ccc(O)cc1` (relative stereo) [p-Coumaroyl SCoA, trans-4-coumaroyl SCoA]: 0.72 nkat/mg of protein.
Regarding `O=C(O)/C=C/c1ccc2c(c1)OCO2` [3,4-methylenedioxy-trans-cinnamate], the “Use as substrate by enzyme activities I, II and III” value (from here on “Use as substrate”) in test [2] is on record as “poor substrates”.
Consider `CC(=O)O` [Acetate], for which, in test [3] (setting [7]), the “Relative Growth (%)” value was determined as 47%.
Consider `O=C(O)/C=C/c1ccc(O)c(O)c1` [Caffeic acid, 3,4-dihydroxy-trans-cinnamate], for which the activity at 10000 µM in test [3] (setting [8]) worked out at 79%.
In the case of `O=C(O)C=Cc1ccccc1` [Cinnamic acid], in test [3] (setting [8]), the activity at 10000 µM is 0%. Also, in test [2], the “Use as substrate” value is given as “poor substrates”.
As for `COc1cc(/C=C/C(=O)O)ccc1O` [Ferulic acid, 4-hydroxy-3-methoxy-trans-cinnamate], in test [3] (setting [8]), the activity at 10000 µM came out at 100%.
As for `COc1cc(C(O)CC(=O)SCCNC(=O)CCNC(=O)[C@H](O)C(C)(C)COP(=O)(O)OP(=O)(O)OC[C@H]2O[C@@H](n3cnc4c(N)ncnc43)[C@H](O)[C@@H]2OP(=O)(O)O)ccc1O` (stereo partly drawn) [HMPHP SCoA, 4-hydroxy-3-methoxyphenyl-β-hydroxypropionyl SCoA], the “Metabolism by cell-free extract” value in test [4] (incubated with cell-free extract, absence of NAD+) was “converted rapidly to acetyl SCoA and vanillin, in equimolar proportions”.
For `CO` [Methanol], the activity at 10000 µM in test [3] (Pseudomonas fluorescens, 48 h) was 0%.
In the case of `O=C(O)c1ccc(O)c(O)c1` [Protocatechuic acid], the activity at 10000 µM in test [3] (Pseudomonas fluorescens, 48 h) was determined as 77%.
For the compound `O=Cc1ccc(O)c(O)c1` [Protocatechuic aldehyde], in test [3] (setting [7]), the “Relative Growth (%)” value turned out to be 0%.
In the case of `COc1cc(/C=C/C(=O)O)cc(OC)c1O` [Sinapic acid], in test [3] (setting [8]), the activity at 10000 µM stood at 0%.
In the case of `COc1cc(C(=O)O)ccc1O` [Vanillic acid], in test [3] (setting [8]), the activity at 10000 µM stood at 140%.
In the case of `COc1cc(C=O)ccc1O` [Vanillin, 4-hydroxy-3-methoxybenzaldehyde], in test [3] (Pseudomonas fluorescens, vanillin 1 mM on MM Medium, 48 h at 25° C., absorbance at 600 nm), the activity at 1000 µM is below 100%. Also, the “Effect on growth of strain AN103” value in test [3] (concentrations higher than the low concentrations (<1 mM)) is “growth-inhibitory”. Further, the “Activity as substrate of vanillin:NAD+ oxidoreductase” value in test [5] is reported as 3.0 nkat/mg of protein.
`O=C(O)/C=C/c1ccc(O)cc1` [p-Coumarate, 4-hydroxy-trans-cinnamate]: in test [6], the “Activity, formation of CoASH thioester” value is recorded as 0.37 nkat/mg protein. Moreover, in test [2], the “Use as substrate” value was “reasonable efficiency”.
Regarding `O=Cc1ccccc1O` [salicylaldehyde], in test [5], the “Activity as substrate of vanillin:NAD+ oxidoreductase” value turned out to be 2.8 nkat/mg.
For the compound `COc1cc(C(=O)SCCNC(=O)CCNC(=O)[C@H](O)C(C)(C)COP(=O)(O)OP(=O)(O)OC[C@H]2O[C@@H](n3cnc4c(N)ncnc43)[C@H](O)[C@@H]2OP(=O)(O)O)ccc1O` [vanilloyl SCoA, 4hydroxy-3-methoxybenzoyl SCoA], the “Metabolism to vanillin by cell-free extracts” value in test [4] (in the presence of NADH) is reported as “not to be metabolised to vanillin”.
